Drawing on US20250270200A1, “CTPS1 INHIBITORS AND USES THEREOF” (Nimbus Clotho, Inc., priority 2022, published 2025), this text covers IC50 for 22 compounds.

What is called IC50 is the concentration needed to halve the response being measured.

Counter-ions that a name gives are not always drawn.

The target of the first test is T1, human CTPS1 (Homo sapiens, UniProt P17812).
T1 sequence (P17812 1-591): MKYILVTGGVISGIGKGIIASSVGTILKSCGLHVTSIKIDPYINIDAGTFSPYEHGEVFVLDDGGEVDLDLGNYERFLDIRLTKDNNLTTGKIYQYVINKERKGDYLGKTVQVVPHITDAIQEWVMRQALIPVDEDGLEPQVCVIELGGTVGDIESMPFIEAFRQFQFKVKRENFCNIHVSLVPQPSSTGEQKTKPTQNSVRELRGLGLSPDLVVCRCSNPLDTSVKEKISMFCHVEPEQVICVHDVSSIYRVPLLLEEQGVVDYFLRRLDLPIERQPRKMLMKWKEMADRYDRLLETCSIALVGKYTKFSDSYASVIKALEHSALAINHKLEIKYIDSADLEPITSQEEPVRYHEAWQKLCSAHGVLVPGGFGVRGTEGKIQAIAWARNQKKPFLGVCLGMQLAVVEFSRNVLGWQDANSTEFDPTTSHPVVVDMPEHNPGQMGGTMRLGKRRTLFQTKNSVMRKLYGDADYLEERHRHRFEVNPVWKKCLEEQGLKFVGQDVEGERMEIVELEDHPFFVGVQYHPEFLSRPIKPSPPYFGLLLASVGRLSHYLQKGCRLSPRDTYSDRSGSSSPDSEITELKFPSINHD
The test is described as follows: ADP-Glo assay, human CTPS1 enzyme inhibition. The format is biochemical. To be noted: wild-type human CTPS1 25 nM; ATP 120 μM, UTP 160 μM, GTP 60 μM, L-glutamine 100 μM; 25 degrees C.; read-out: ADP-Glo_WT_hCTPS1—25 nM_IC50 (IC50). Put shortly: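 Full-length tagged human CTPS1 (25 nM) pre-incubated 10 min at 25° C with compound, then 10 min with ATP (120 μM) and UTP (160 μM); reaction started with L-glutamine (100 μM) and GTP (60 μM), 1% DMSO, in HEPES pH 7.4, 10 mM Mg2+, 5 mM KCl, 2 mM DTT. Run within linear phase at 25° C; ADP measured by ADP-Glo luminescence.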
Background: ADP-Glo first removes unused ATP, then detects ADP through luciferase.
On to `CCOc1cncc(-c2cnc(C(=O)N[C@@H](c3nccc(NS(=O)(=O)C4CC4)c3F)[C@@H]3CCOC3)s2)n1` (single isomer, unassigned) [II-19], for which the IC50 fell in the range of 5 to 25 nM.

Take `O=C(N[C@H](c1cc(NS(=O)(=O)C2CC2)ccn1)C1CCOCC1)c1nnc(-c2cnn3ccc(Cl)cc23)s1` (single isomer, unassigned) [II-15]: the IC50 fell in the range of 5 to 25 nM.

The same test, now with this note: wild-type human CTPS1, 25 nM enzyme; ADP-Glo; read-out: ADP-Glo_WT_hCTPS1—25 nM_IC50 (IC50).
For the compound `CCOc1cncc(-c2cnc(C(=O)N(C)[C@@H](c3cc(NS(=O)(=O)C4CC4)ccn3)[C@H]3CCOC3)s2)n1` [I-65, N-((R)-(4-(cyclopropanesulfonamido)pyridin-2-yl)((R)-tetrahydrofuran-3-yl)methyl)-5-(6-ethoxypyrazin-2-yl)-N-methylthiazole-2-carboxamide], the IC50 is above 100 nM.

On to `CCOc1cncc(-c2cnc(C(=O)N[C@H](C)c3cc(NS(=O)(=O)C4CC4)ccn3)s2)n1` [I-176, (R)-N-(1-(4-(cyclopropanesulfonamido)pyridin-2-yl)ethyl)-5-(6-ethoxypyrazin-2-yl)thiazole-2-carboxamide], for which the IC50 was in the range of 5 to 25 nM.

Turning to `CCOc1cncc(-c2cnc(C(=O)N[C@H](C[C@H]3COCCN3C)c3cc(NS(=O)(=O)C4CC4)ccn3)s2)n1` [I-104, N-((R)-1-(4-(cyclopropanesulfonamido)pyridin-2-yl)-2-((S)-4-methylmorpholin-3-yl)ethyl)-5-(6-ethoxypyrazin-2-yl)thiazole-2-carboxamide], the IC50 was at most 5 nM.

`CCOc1cncc(-c2cnc(C(=O)N[C@H](c3cc(NS(=O)(=O)C4CC4)ccn3)C(C)(C)CN(C)C)s2)n1` (single isomer, unassigned) [I-42]: the IC50 fell in the range of 50 to 100 nM.

With `CCOc1cncc(-c2cnc(C(=O)N[C@@H](c3cc(NS(=O)(=O)C4CC4)ccn3)[C@H]3CCN(C4CCCC4)C3)s2)n1` [I-96, N-((R)-((S)-1-cyclopentylpyrrolidin-3-yl)(4-(cyclopropanesulfonamido)pyridin-2-yl)methyl)-5-(6-ethoxypyrazin-2-yl)thiazole-2-carboxamide], the IC50 was 5 to 25 nM.

Regarding `CCOc1cncc(-c2cnc(C(=O)N[C@H](c3cc(NS(=O)(=O)C4CC4)ccn3)[C@@H]3CCCO3)s2)n1` [I-60, N-((R)-(4-(cyclopropanesulfonamido)pyridin-2-yl)((S)-tetrahydrofuran-2-yl)methyl)-5-(6-ethoxypyrazin-2-yl)thiazole-2-carboxamide], the half-inhibitory concentration (IC50) was in the range of 5 to 25 nM.

For the compound `CCOc1cncc(-c2ccc(C(=O)N[C@H](CCN3CCCCC3)c3cc(NS(=O)(=O)C4CC4)ccn3)c(F)c2F)n1` (single isomer, unassigned) [I-7], the IC50 lay within 5 to 25 nM.

As for `CCOc1cncc(-c2cnc(C(=O)N[C@H](c3cccc(NS(=O)(=O)C(F)F)c3)[C@@H](C)N3CCOCC3)s2)n1` [I-224, N-((1R,2R)-1-(3-((difluoromethyl)sulfonamido)phenyl)-2-morpholinopropyl)-5-(6-ethoxypyrazin-2-yl)thiazole-2-carboxamide], the IC50 was 5 to 25 nM.

In the case of `CCOc1cncc(-c2cnc(C(=O)N[C@H](c3cc(NS(=O)(=O)C4CC4)ccn3)[C@H](C)CN3CCCCC3)s2)n1` (stereo in doubt) [I-53, N-((1S,2R)-1-(4-(cyclopropanesulfonamido)pyridin-2-yl)-2-methyl-3-(piperidin-1-yl)propyl)-5-(6-ethoxypyrazin-2-yl)thiazole-2-carboxamide], the IC50 lay in the range of 5 to 25 nM.

In the case of `CCOc1cncc(-c2cnc(C(=O)N[C@H](CN3CCOC[C@@H]3C)c3cc(NS(=O)(=O)C4CC4)ccn3)s2)n1` (single isomer, unassigned) [I-35], the IC50 was at most 5 nM.

Turning to `CCOc1cncc(-c2cnc(C(=O)N[C@@H](c3cc(NS(=O)(=O)C4CC4)ccn3)[C@H]3CCCN3C)s2)n1` [I-118, N-((R)-(4-(cyclopropanesulfonamido)pyridin-2-yl)((R)-1-methylpyrrolidin-2-yl)methyl)-5-(6-ethoxypyrazin-2-yl)thiazole-2-carboxamide], the IC50 lay within 5 to 25 nM.

As for `CCOc1cncc(-c2cnc(C(=O)N[C@@H](c3cc(NS(=O)(=O)C4CC4)ncn3)[C@H]3CCOC3)s2)n1` [I-258, N-((R)-(6-(cyclopropanesulfonamido)pyrimidin-4-yl)((R)-tetrahydrofuran-3-yl)methyl)-5-(6-ethoxypyrazin-2-yl)thiazole-2-carboxamide], the IC50 fell in the range of 5 to 25 nM.

With `CCOc1cncc(-c2cnc(C(=O)N[C@@H](Cn3ccccc3=O)c3cc(NS(=O)(=O)C4CC4)ccn3)s2)n1` [I-140, (S)-N-(1-(4-(cyclopropanesulfonamido)pyridin-2-yl)-2-(2-oxopyridin-1(2H)-yl)ethyl)-5-(6-ethoxypyrazin-2-yl)thiazole-2-carboxamide], the IC50 was 5 to 25 nM.

For `CCOc1cncc(-c2cnc(C(=O)N[C@@H](CN3CCN(C4CC4)CC3)c3cc(NS(=O)(=O)C4CC4)ncn3)s2)n1` [I-248, (S)-N-(1-(6-(cyclopropanesulfonamido)pyrimidin-4-yl)-2-(4-cyclopropylpiperazin-1-yl)ethyl)-5-(6-ethoxypyrazin-2-yl)thiazole-2-carboxamide], the IC50 was 25 to 50 nM.

Take `CN(C)C[C@@H](NC(=O)c1ncc(-c2cnn3ccc(Cl)cc23)s1)c1cc(NS(=O)(=O)C2CC2)ccn1` [I-165, (R)-5-(5-chloropyrazolo[1,5-a]pyridin-3-yl)-N-(1-(4-(cyclopropanesulfonamido)pyridin-2-yl)-2-(dimethylamino)ethyl)thiazole-2-carboxamide, formic acid salt]: the IC50 fell in the range of 5 to 25 nM.

For the compound `CCOc1cncc(-c2cnc(C(=O)NC3(c4cc(NS(=O)(=O)C5CC5)ccn4)CCN(C)C3)s2)n1` (stereo not shown) [I-182, N-(3-(4-(cyclopropanesulfonamido)pyridin-2-yl)-1-methylpyrrolidin-3-yl)-5-(6-ethoxypyrazin-2-yl)thiazole-2-carboxamide, formic acid salt], the IC50 lay within 5 to 25 nM.

With `CCOc1cncc(-c2cnc(C(=O)N[C@H](c3cc(NS(=O)(=O)C4CC4)ccn3)[C@H]3CC(=O)N(C)C3)s2)n1` [I-120, N-((S)-(4-(cyclopropanesulfonamido)pyridin-2-yl)((S)-1-methyl-5-oxopyrrolidin-3-yl)methyl)-5-(6-ethoxypyrazin-2-yl)thiazole-2-carboxamide], the IC50 lay in the range of 25 to 50 nM.

In the case of `CCOc1cncc(-c2cnc(C(=O)N[C@@H](c3cc(NS(=O)(=O)C4CC4)ccn3)[C@H]3CN(C)CCO3)s2)n1` [I-100, N-((S)-(4-(cyclopropanesulfonamido)pyridin-2-yl)((R)-4-methylmorpholin-2-yl)methyl)-5-(6-ethoxypyrazin-2-yl)thiazole-2-carboxamide], the IC50 was in the range of 5 to 25 nM.

On to `CCOc1cncc(-c2cnc(C(=O)N[C@@H](CN3C[C@@H]4CC[C@H]3CO4)c3cc(NS(=O)(=O)C4CC4)ccn3)s2)n1` [I-135, N-((S)-2-((1S,4S)-2-oxa-5-azabicyclo[2.2.2]octan-5-yl)-1-(4-(cyclopropanesulfonamido)pyridin-2-yl)ethyl)-5-(6-ethoxypyrazin-2-yl)thiazole-2-carboxamide], for which the IC50 was at most 5 nM.

As for `CCOc1cncc(-c2cnc(C(=O)NC(c3cc(NS(=O)(=O)C4CC4)ccn3)C3CN(C)CCO3)s2)n1` (single isomer, unassigned) [I-106, N-((4-(cyclopropanesulfonamido)pyridin-2-yl)(4-methylmorpholin-2-yl)methyl)-5-(6-ethoxypyrazin-2-yl)thiazole-2-carboxamide], the IC50 lay within 5 to 25 nM.
